This is an account of results in ChEMBL document CHEMBL3734721 (J Med Chem, 2015).

Molecules are shown by their SMILES. Some results are limits rather than exact numbers.

A short description of data set [1]: Intrinsic clearance in mouse liver microsomes at 1 uM by HPLC/MS/MS analysis. The data set is classed as ADME. Particulars: read-out: CLH. (Liver microsomes are vesicles of endoplasmic reticulum, rich in cytochrome P450 enzymes.)
Data set [2] addresses T1, D(1A) dopamine receptor (Homo sapiens, UniProt P21728). The data set can be described thus: Antagonist activity at human wild-type D1 receptor expressed in CHO cells assessed as dopamine-induced cAMP by HTRF assay. The class given is functional, cell-based. Background: Time-resolved FRET reads energy transfer from a long-lived donor to a nearby acceptor.
Data set [3] deals with T2, Muscarinic acetylcholine receptor M2 (Homo sapiens, UniProt P08172).
T2 sequence (P08172 whole entry): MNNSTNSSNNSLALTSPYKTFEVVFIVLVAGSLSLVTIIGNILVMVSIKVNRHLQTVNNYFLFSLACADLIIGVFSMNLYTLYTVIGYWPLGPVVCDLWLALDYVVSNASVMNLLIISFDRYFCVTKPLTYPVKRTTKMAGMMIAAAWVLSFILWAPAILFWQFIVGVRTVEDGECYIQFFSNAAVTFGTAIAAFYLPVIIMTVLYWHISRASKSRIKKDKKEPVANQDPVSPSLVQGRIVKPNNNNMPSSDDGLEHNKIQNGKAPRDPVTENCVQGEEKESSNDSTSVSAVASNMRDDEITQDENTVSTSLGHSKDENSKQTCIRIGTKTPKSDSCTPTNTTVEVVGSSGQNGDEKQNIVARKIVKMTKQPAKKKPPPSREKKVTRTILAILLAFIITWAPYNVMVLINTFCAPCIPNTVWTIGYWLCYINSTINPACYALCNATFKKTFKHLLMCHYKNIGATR
The data set can be described thus: Agonist activity at human wild-type M2 receptor expressed in CHO-K1 cells assessed as cAMP level by HTRF assay. The data set is classed as functional, cell-based. Background: cAMP levels reflect the balance of adenylyl cyclase and phosphodiesterase activity.

The target of data set [4] is T3, Type-1 angiotensin II receptor (Homo sapiens, UniProt P30556).
T3 sequence (P30556 whole entry): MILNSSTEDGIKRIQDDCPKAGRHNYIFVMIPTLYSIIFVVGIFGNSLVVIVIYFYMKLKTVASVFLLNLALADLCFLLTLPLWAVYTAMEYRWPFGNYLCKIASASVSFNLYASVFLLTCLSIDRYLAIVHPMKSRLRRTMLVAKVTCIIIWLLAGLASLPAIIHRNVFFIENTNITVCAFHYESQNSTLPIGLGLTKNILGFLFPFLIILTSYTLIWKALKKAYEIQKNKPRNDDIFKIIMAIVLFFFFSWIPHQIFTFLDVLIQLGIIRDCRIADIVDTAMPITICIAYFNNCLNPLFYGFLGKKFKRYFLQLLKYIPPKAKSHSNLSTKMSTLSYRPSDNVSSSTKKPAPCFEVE
The data set can be described thus: Agonist activity at human wild-type AGTR1 receptor expressed in CHO-K1 cells assessed as calcium level by FDSS assay. The data set is classed as functional, cell-based.

Data set [5] deals with T2, Muscarinic acetylcholine receptor M2. The data set can be described thus: Antagonist activity at human wild-type M2 receptor expressed in CHO-K1 cells assessed as acetylcholine-induced cAMP by HTRF assay. The class given is functional, cell-based.
The target in data set [6] is T4, Endothelin-1 receptor (Homo sapiens, UniProt P25101).
T4 sequence (P25101 whole entry): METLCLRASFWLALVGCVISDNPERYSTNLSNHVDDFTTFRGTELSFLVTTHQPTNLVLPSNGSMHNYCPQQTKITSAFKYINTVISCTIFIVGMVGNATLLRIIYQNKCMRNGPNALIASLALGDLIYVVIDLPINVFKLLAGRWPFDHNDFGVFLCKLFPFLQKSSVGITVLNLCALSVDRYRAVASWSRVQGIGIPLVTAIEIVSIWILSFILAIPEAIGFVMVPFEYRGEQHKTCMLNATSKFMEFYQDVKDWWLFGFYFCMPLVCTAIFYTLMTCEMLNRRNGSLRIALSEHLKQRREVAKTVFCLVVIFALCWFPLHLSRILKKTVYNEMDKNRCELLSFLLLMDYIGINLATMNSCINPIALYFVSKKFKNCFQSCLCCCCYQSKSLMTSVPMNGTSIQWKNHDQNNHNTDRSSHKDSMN
The data set can be described thus: Antagonist activity at human wild-type ETA receptor expressed in CHO-K1 cells assessed as endothelin-1-induced calcium by HTRF assay. The data set is classed as functional, cell-based.

Data set [7] has as its target Cytochrome P450 2C19 (Homo sapiens, UniProt P33261). The data set can be described thus: Inhibition of human CYP2C19 by LC-MS analysis. The data set is classed as ADME.
Data set [8] has as its system human MDR1. The data set can be described thus: Permeability across apical to basolateral in MDCK expressing human MDR1 at 5 uM by LC-MS/MS method. The data set is classed as ADME, cell-based, Canis lupus familiaris. The following applies: dog, read-out: permeability.
The target of data set [9] is T5, Alpha-2C adrenergic receptor (Homo sapiens, UniProt P18825).
T5 sequence (P18825 whole entry): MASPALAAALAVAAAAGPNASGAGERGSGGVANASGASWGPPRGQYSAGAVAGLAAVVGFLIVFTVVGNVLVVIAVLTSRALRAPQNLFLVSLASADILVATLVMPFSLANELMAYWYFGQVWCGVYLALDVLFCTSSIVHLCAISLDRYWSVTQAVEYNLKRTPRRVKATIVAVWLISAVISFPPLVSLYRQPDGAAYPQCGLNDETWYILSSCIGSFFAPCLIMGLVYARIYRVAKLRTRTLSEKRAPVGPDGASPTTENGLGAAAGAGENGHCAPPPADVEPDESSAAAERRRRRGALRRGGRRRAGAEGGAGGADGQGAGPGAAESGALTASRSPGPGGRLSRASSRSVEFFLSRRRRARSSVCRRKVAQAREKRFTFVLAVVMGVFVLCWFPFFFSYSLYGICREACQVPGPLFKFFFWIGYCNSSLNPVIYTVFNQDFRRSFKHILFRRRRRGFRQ
The data set can be described thus: Agonist activity at human wild-type alpha 2C receptor expressed in CHO-K1 cells assessed as cAMP level by HTRF assay. The class given is functional, cell-based.

The subject of data set [10] is Liver microsome. The data set can be described thus: Metabolic stability in human liver microsomes assessed as GSH adduct formation at 40 uM for 1 hr by LC/MS analysis. The data set is classed as ADME.
The target in data set [11] is T1, D(1A) dopamine receptor. The data set can be described thus: Agonist activity at human wild-type D1 receptor expressed in CHO cells assessed as cAMP level by HTRF assay. The data set is classed as functional, cell-based.
In data set [12] the target is D(2) dopamine receptor (Homo sapiens, UniProt P14416). The data set can be described thus: Antagonist activity at human wild-type D2 receptor expressed in CHO-K1 cells assessed as dopamine-induced cAMP by HTRF assay. The data set is classed as functional, cell-based.
Data set [13] can be described thus: Fraction unbound in rat brain at 5 uM after 5 hrs by LC-MS/MS analysis. The data set is classed as ADME, tissue-based.
Data set [14] in a line: Chemical stability of compound in buffer at pH 7.4 assessed as compound remaining at 10 mg/ml after 1 day. The class given is physicochemical. Particulars: read-out: Stability.
Data set [15] can be described thus: Intrinsic clearance in human liver microsomes at 1 uM by HPLC/MS/MS analysis. The class given is ADME. Particulars: read-out: CLH.

T1 sequence (P21728 whole entry): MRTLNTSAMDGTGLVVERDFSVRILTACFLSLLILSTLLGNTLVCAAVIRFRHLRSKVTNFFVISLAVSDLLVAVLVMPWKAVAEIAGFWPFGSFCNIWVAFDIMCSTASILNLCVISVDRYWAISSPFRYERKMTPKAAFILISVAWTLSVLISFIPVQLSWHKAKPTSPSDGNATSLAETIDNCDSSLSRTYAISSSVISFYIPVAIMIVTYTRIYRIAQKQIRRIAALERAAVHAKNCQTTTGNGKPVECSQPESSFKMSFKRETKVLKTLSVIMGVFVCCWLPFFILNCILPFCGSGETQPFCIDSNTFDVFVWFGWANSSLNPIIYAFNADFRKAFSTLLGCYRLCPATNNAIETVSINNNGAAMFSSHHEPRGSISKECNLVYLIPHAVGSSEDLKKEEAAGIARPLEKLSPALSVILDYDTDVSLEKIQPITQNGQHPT
Sequence of D(2) dopamine receptor (P14416 whole entry): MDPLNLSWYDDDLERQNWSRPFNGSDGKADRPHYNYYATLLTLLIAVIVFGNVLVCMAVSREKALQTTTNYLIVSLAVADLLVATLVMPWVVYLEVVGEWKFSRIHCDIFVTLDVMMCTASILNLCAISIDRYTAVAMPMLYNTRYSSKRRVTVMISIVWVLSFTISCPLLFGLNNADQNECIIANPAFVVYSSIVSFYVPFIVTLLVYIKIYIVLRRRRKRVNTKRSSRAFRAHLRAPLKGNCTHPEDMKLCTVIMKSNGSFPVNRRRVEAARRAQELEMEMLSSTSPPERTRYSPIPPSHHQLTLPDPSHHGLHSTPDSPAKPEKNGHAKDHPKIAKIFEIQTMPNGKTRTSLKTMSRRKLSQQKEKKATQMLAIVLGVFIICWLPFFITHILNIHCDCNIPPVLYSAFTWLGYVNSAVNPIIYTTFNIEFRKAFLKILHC
Sequence of Cytochrome P450 2C19 (P33261 whole entry): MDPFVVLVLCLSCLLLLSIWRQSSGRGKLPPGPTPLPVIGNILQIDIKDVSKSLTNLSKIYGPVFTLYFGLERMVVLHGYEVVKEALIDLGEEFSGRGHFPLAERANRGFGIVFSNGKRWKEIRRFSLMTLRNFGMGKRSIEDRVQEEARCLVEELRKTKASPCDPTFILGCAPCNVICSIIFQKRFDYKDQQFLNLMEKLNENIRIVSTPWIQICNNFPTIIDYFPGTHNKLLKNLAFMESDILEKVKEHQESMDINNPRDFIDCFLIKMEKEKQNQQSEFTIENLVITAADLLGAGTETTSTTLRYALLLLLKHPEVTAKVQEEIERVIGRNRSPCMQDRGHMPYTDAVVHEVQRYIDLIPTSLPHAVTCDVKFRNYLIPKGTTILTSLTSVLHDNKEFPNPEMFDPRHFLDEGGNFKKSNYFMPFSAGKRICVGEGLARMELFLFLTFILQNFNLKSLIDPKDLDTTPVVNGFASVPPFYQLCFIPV

For `CB1C=Cc2cccc(OCC(O)CNC(C)C)c2N1` (stereo not given), the results for the microsomal CLint at 1 µM in data set [1] and in data set [15] were above 346 µL/min/mg and 8.7 µL/min/mg, respectively. Moreover, the IC50 in [2] was above 5.01 µM; in [5] it was above 5.01 µM; in data set [6], above 5.01 µM; in [7] it was above 10 µM; in data set [12] it was above 5.01 µM. For the same compound, the concentration for a half-maximal effect (EC50) in [3], in data set [4], in data set [9] and in [11] was above 5.01 µM in each case. Also, in data set [8], the Papp A→B at 5 µM is 1.3 ×10⁻⁶ cm/s. Also, in data set [10], the Stability result was “Stable”. Moreover, in [13], the fraction unbound at 5 h, 5 µM stood at 0.0055. Moreover, in [14], the remaining at 24 h, 10 mg/ml was found to be 93%.

On to `CB1C=Cc2c(cccc2OCC(O)CN(C)C)N1` (stereo not given), for which the microsomal CLint at 1 µM in data set [1] amounted to 175 µL/min/mg; in data set [15] it was 11 µL/min/mg. Further, the IC50 in data set [2] was above 5.01 µM; in data set [5], above 5.01 µM; in data set [6] it was above 5.01 µM; in data set [7], above 10 µM; in data set [12] it was above 5.01 µM. The concentration for a half-maximal effect (EC50) in data set [3], in data set [4], in data set [9] and in [11] was above 5.01 µM in each case. The Papp A→B at 5 µM in data set [8] came out at 2.3 ×10⁻⁶ cm/s. For the same compound, the Stability entry in data set [10] is on record as “Stable”. The fraction unbound at 5 h, 5 µM in data set [13] was 0.019. Moreover, the remaining at 24 h, 10 mg/ml in [14] was found to be 96%.

The IC50 is the concentration that gives 50% inhibition. The term EC50 denotes the midpoint of the concentration-response curve. Usually fraction unbound stands for the share of the substance not bound to proteins or other matrix. Lower therefore signals little free substance.
